According to US11230543B2, “Biaryl monobactam compounds and methods of use thereof for the treatment of bacterial infections” (priority 2015, dated 2022):
Structures can show the parent of a compound that is named as a salt.

Experiments:
[1] = system: Pseudomonas aeruginosa expressing AmpC (CL5701); assay: Antibiotic activity: growth inhibitory concentration (OD600), Pseudomonas aeruginosa CL5701; format: cell-based; conditions: lowest concentration inhibiting 95% of bacterial growth; in the presence of β lactamase inhibitor Relebactam 4 μg/mL; 35±2° C. for 22 hours; tested range 100 μM to 0.098 μM
Description: (§1) Antibiotic Activity: Determination of Growth Inhibitory Concentration
(§2) The concentrations of compounds required to inhibit the growth of various strains of bacteria were determined in an assay that assessed bacterial growth by measuring optical density at 600 nm (OD600). The bacterial strains tested included the clinical strains Escherichia coli expressing NDM-1 (CLB30016), Klebsiella pneumoniae expressing KPC-1 (CL6569), Acinetobacter baumannii expressing TEM-1, AmpC, and Oxa-24/40 (CL6188) and Pseudomonas aeruginosa expressing AmpC (CL5701). All compounds were tested in the presence of a β lactamase inhibitor (BLi, Relebactam) in 384-well microplates. The clinical strains were stored as frozen single use stocks, thawed and diluted into 1.1× cation-adjusted Mueller-Hinton II broth to achieve approximately 2×10^5 CFU/mL. Test compounds were dissolved in DMSO and diluted 1:50 in the assay, resulting in a final concentration range of 100 μM to 0.098 μM. On the day of the assay, 1 μL of test compound was added to the plate followed by 4 μL of 50 μg/mL BLi in MOPS buffer and 45 μL of diluted bacteria. Plates were centrifuged at 1000 rpm for 30 seconds, shaken at approximately 800 rpm for 1 minute, and incubated at 35±2° C. for 22 hours. The concentration of BLi used in the assay was 4 μg/mL. At the end of the incubation, absorbance at 600 nm was determined using a spectrophotometer. Inhibition was quantitated by identifying the lowest concentration of test compound that was required to inhibit 95% of the growth of the bacteria. The results for Examples 1-126 are reported in Table I, expressed as the concentration of compound that inhibited 95% of bacterial growth (Minimum Inhibitory Threshold Concentration; MITC95).

[2] = system: Klebsiella pneumoniae expressing KPC-1 (CL6569); assay: Antibiotic activity: growth inhibitory concentration (OD600), Klebsiella pneumoniae CL6569; format: cell-based; conditions: lowest concentration inhibiting 95% of bacterial growth; in the presence of β lactamase inhibitor Relebactam 4 μg/mL; 35±2° C. for 22 hours; tested range 100 μM to 0.098 μM
Description: as §1, §2

Cn1c(-c2ccc(OC[C@H](O/N=C(\C(=O)N[C@@H]3C(=O)N(OS(=O)(=O)O)C3(C)C)c3csc(N)n3)C(=O)O)cc2)cn(CCCN)c1=N.O=C(O)C(F)(F)F [Example 32, 3-(4-(4-((S)-2-((((Z)-1-(2-aminothiazol-4-yl)-2-(((S)-2,2-dimethyl-4-oxo-1-(sulfooxy)-azetidin-3-yl)amino)-2-oxoethylidene)amino)oxy)-2-carboxyethoxy)phenyl)-2-imino-3-methyl-2,3-dihydro-1H-imidazol-1-yl)propan-1-aminium 2,2,2-trifluoroacetate]
PA_CL5701 MITC95 [1]: 3.125 µM | KP_CL6569 MITC95 [2]: 0.1953 µM

CC1(C)[C@H](NC(=O)/C(=N\O[C@@H](COc2ccc(-c3cn(CCCN)[n+](CC4CNC4)c3)cc2)C(=O)O)c2csc(N)n2)C(=O)N1OS(=O)(=O)[O-] [Example 97, (S)-3-((Z)-2-(((S)-2-(4-(1-(3-aminopropyl)-2-(azetidin-3-ylmethyl)-1H-pyrazol-2-ium-4-yl)phenoxy)-1-carboxyethoxy)imino)-2-(2-aminothiazol-4-yl)acetamido)-2,2-dimethyl-4-oxoazetidin-1-yl sulfate]
PA_CL5701 MITC95 [1]: 1.781 µM | KP_CL6569 MITC95 [2]: 0.125 µM

CN(CC(O/N=C(\C(=O)N[C@@H]1C(=O)N(OS(=O)(=O)[O-])C1(C)C)c1csc(N)n1)C(=O)O)c1ccc(-c2cn(CCCN)[n+](C)c2)cc1 (stereo partly drawn) [Example 92, (3S)-3-(2-((2-((4-(1-(3-aminopropyl)-2-methyl-1H-pyrazol-2-ium-4-yl)phenyl)(methyl)amino)-1-carboxyethoxy)imino)-2-(2-aminothiazol-4-yl)acetamido)-2,2-dimethyl-4-oxoazetidin-1-yl sulfate]
PA_CL5701 MITC95 [1]: 100 µM | KP_CL6569 MITC95 [2]: 6.25 µM

C[n+]1cc(-c2ccc(OC[C@H](O/N=C(\C(=O)N[C@@H]3C(=O)N(OS(=O)(=O)[O-])C3(C)C)c3nc(N)sc3Cl)C(=O)O)cc2)ccc1NCCN [Example 67, (S)-3-((Z)-2-(2-amino-5-chlorothiazol-4-yl)-2-(((S)-2-(4-(6-((2-aminoethyl)amino)-1-methylpyridin-1-ium-3-yl)phenoxy)-1-carboxyethoxy)imino)acetamido)-2,2-dimethyl-4-oxoazetidin-1-yl sulfate]
PA_CL5701 MITC95 [1]: 6.25 µM | KP_CL6569 MITC95 [2]: 0.7813 µM

CC1(C)[C@H](NC(=O)/C(=N\O[C@@H](COc2ccc(-c3cn(CCCN)[n+](C[C@@H]4CCNC4)c3)cc2)C(=O)O)c2csc(N)n2)C(=O)N1OS(=O)(=O)[O-] [Example 53, (S)-3-((Z)-2-(((S)-2-(4-(1-(3-aminopropyl)-2-(((R)-pyrrolidin-3-yl)methyl)-1H-pyrazol-2-ium-4-yl)phenoxy)-1-carboxyethoxy)imino)-2-(2-aminothiazol-4-yl)acetamido)-2,2-dimethyl-4-oxoazetidin-1-yl sulfate]
PA_CL5701 MITC95 [1]: 1.563 µM | KP_CL6569 MITC95 [2]: 0.09766 µM

CC1(C)[C@H](NC(=O)/C(=N\O[C@H](COc2ccc(Nc3nccn3CCCN)nc2)C(=O)O)c2csc(N)n2)C(=O)N1OS(=O)(=O)O [Example 37B, 3-(2-((5-((R)-2-((((Z)-1-(2-aminothiazol-4-yl)-2-(((S)-2,2-dimethyl-4-oxo-1-(sulfooxy)azetidin-3-yl)amino)-2-oxoethylidene)amino)oxy)-2-carboxyethoxy)pyridin-2-yl)amino)-1H-imidazol-1-yl)propan-1-aminium 2,2,2-trifluoroacetate]
PA_CL5701 MITC95 [1]: 25 µM | KP_CL6569 MITC95 [2]: 6.25 µM

Cn1c(-c2ccc(OC[C@](C)(O/N=C(\C(=O)N[C@@H]3C(=O)N(OS(=O)(=O)O)C3(C)C)c3csc(N)n3)C(=O)O)cc2)cn(CCCN)c1=N [Example 107, (S)-3-((Z)-2-((((S)-1-(4-(1-(3-aminopropyl)-2-imino-3-methyl-2,3-dihydro-1H-imidazol-4-yl)phenoxy)-2-carboxypropan-2-yl)oxy)imino)-2-(2-aminothiazol-4-yl)acetamido)-2,2-dimethyl-4-oxoazetidin-1-yl sulfate]
PA_CL5701 MITC95 [1]: 50 µM | KP_CL6569 MITC95 [2]: 6.25 µM

C[n+]1cc(-c2ccc(OC[C@H](O/N=C(\C(=O)N[C@@H]3C(=O)N(OS(=O)(=O)O)C3(C)C)c3csc(N)n3)C(=O)O)cc2F)cn1CC(N)CN (single isomer, unassigned) [Example 46]
PA_CL5701 MITC95 [1]: 6.25 µM | KP_CL6569 MITC95 [2]: 0.3906 µM

C[n+]1cc(-c2ccc(OC[C@H](O/N=C(\C(=O)N[C@@H]3C(=O)N(OS(=O)(=O)[O-])C3(C)C)c3csc(N)n3)C(=O)O)cc2)ccc1NC(CN)CN [Example 82, (S)-3-((Z)-2-(2-aminothiazol-4-yl)-2-(((S)-1-carboxy-2-(4-(6-((1,3-diaminopropan-2-yl)amino)-1-methylpyridin-1-ium-3-yl)phenoxy)ethoxy)imino)acetamido)-2,2-dimethyl-4-oxoazetidin-1-yl sulfate]
PA_CL5701 MITC95 [1]: 3.125 µM | KP_CL6569 MITC95 [2]: 0.1953 µM

Cn1c(-c2ccc(OC[C@H](O/N=C(\C(=O)N[C@@H]3C(=O)N(OS(=O)(=O)O)C3(C)C)c3csc(N)n3)C(N)=O)cc2)cn(CCCN)c1=N [Example 114, (S)-3-((Z)-2-((((S)-1-amino-3-(4-(1-(3-aminopropyl)-2-imino-3-methyl-2,3-dihydro-1H-imidazol-4-yl)phenoxy)-1-oxopropan-2-yl)oxy)imino)-2-(2-aminothiazol-4-yl)acetamido)-2,2-dimethyl-4-oxoazetidin-1-yl sulfate]
PA_CL5701 MITC95 [1]: 50 µM | KP_CL6569 MITC95 [2]: 1.563 µM

CC1(C)[C@H](NC(=O)/C(=N\O[C@@H](COc2ccc(Nc3nccn3CCCN)nc2)C(=O)O)c2csc(N)n2)C(=O)N1OS(=O)(=O)O [Example 37A, 3-(2-((5-((S)-2-((((Z)-1-(2-aminothiazol-4-yl)-2-(((S)-2,2-dimethyl-4-oxo-1-(sulfooxy)azetidin-3-yl)amino)-2-oxoethylidene)amino)oxy)-2-carboxyethoxy)pyridin-2-yl)amino)-1H-imidazol-1-yl)propan-1-aminium 2,2,2-trifluoroacetate]
PA_CL5701 MITC95 [1]: 3.13 µM | KP_CL6569 MITC95 [2]: 0.78 µM

Cn1c(-c2ccc(OC[C@H](O/N=C(\C(=O)N[C@@H]3C(=O)N(OS(=O)(=O)O)C3(C)C)c3csc(N)n3)C(=O)O)cc2)cn(CC(CN)CN)c1=N [Example 55, (S)-3-(4-(1-(3-amino-2-(aminomethyl)propyl)-2-imino-3-methyl-2,3-dihydro-1H-imidazol-4-yl)phenoxy)-2-((((Z)-1-(2-aminothiazol-4-yl)-2-(((S)-2,2-dimethyl-4-oxo-1-(sulfooxy)azetidin-3-yl)amino)-2-oxoethylidene)amino)oxy)propanoic acid]
PA_CL5701 MITC95 [1]: 1.563 µM | KP_CL6569 MITC95 [2]: 0.1953 µM

C[n+]1cc(-c2c(F)cc(OC[C@H](O/N=C(\C(=O)N[C@@H]3C(=O)N(OS(=O)(=O)O)C3(C)C)c3csc(N)n3)C(=O)O)cc2F)cn1CCCN.O=C(O)C(F)(F)F [Example 3, (S)-3-((Z)-2-(((S)-2-(4-(1-(3-aminopropyl)-2-methyl-1H-pyrazol-2-ium-4-yl)-3,5-difluorophenoxy)-1-carboxyethoxy)imino)-2-(2-aminothiazol-4-yl)acetamido)-2,2-dimethyl-4-oxoazetidin-1-yl sulfate compound with 2,2,2-trifluoroacetic acid (1:1)]
PA_CL5701 MITC95 [1]: 6.25 µM | KP_CL6569 MITC95 [2]: 0.39 µM

C[n+]1c(N)c(-c2ccc(OC[C@H](O/N=C(\C(=O)N[C@@H]3C(=O)N(OS(=O)(=O)[O-])C3(C)C)c3nc(N)sc3Cl)C(=O)O)cc2F)cn1CCCN [Example 48, (S)-3-((Z)-2-(((S)-2-(4-(3-Amino-1-(3-aminopropyl)-2-methyl-1H-pyrazol-2-ium-4-yl)-3-fluorophenoxy)-1-carboxyethoxy)imino)-2-(2-amino-5-chlorothiazol-4-yl)acetamido)-2,2-dimethyl-4-oxoazetidin-1-yl sulfate]
PA_CL5701 MITC95 [1]: 6.25 µM | KP_CL6569 MITC95 [2]: 0.7813 µM

C[n+]1c(-c2ccc(OC[C@H](O/N=C(\C(=O)N[C@@H]3C(=O)N(OS(=O)(=O)O)C3(C)C)c3csc(N)n3)C(=O)O)cc2)ccn1CCCN.O=C([O-])C(F)(F)F [Example 18, 1-(3-aminopropyl)-3-(4-((S)-2-((((Z)-1-(2-aminothiazol-4-yl)-2-(((S)-2,2-dimethyl-4-oxo-1-(sulfooxy)azetidin-3-yl)amino)-2-oxo-ethylidene)amino)oxy)-2-carboxyethoxy)phenyl)-2-methyl-1H-pyrazol-2-ium 2,2,2-trifluoroacetate]
PA_CL5701 MITC95 [1]: 6.25 µM | KP_CL6569 MITC95 [2]: 0.3906 µM

CC1(C)[C@H](NC(=O)/C(=N\O[C@@H](COc2ccc([C@H]3CN=C(NCCN)N3)cc2)C(=O)O)c2csc(N)n2)C(=O)N1OS(=O)(=O)O [Example 58, (S)-3-(4-((S)-2-((2-aminoethyl)amino)-4,5-dihydro-1H-imidazol-4-yl)phenoxy)-2-((((Z)-1-(2-aminothiazol-4-yl)-2-(((S)-2,2-dimethyl-4-oxo-1-(sulfooxy)azetidin-3-yl)amino)-2-oxoethylidene)amino)oxy)propanoic acid]
PA_CL5701 MITC95 [1]: 3.125 µM | KP_CL6569 MITC95 [2]: 0.3906 µM
